Several values for one entry are separate records, joined by “and”; a condition that tells them apart may be missing. Equal entries are not always repeated. Entries after “also recorded” stand apart in the source; their conditions may differ. Where two headings read alike, the source gives them in different places.
What was measured:
[1] = biological target: TRPV1 (Rattus norvegicus, UniProt O35433); conditions: read-out: EC50 in Ca2+ influx assay, cited from earlier work
[2] = literature; cited from earlier work
[3] = biological target: T1, human TRPV3 (Homo sapiens, UniProt Q8NET8); test: In vitro Ca2+ flux counter-screen in human TRPV3 overexpressing cells; type: cell-based; conditions: counter-screen; read-out: TRPV3 EC50
T1 construct: expressed in transfected cells; host or cells: overexpressing cells
T1 sequence (Q8NET8 1-790): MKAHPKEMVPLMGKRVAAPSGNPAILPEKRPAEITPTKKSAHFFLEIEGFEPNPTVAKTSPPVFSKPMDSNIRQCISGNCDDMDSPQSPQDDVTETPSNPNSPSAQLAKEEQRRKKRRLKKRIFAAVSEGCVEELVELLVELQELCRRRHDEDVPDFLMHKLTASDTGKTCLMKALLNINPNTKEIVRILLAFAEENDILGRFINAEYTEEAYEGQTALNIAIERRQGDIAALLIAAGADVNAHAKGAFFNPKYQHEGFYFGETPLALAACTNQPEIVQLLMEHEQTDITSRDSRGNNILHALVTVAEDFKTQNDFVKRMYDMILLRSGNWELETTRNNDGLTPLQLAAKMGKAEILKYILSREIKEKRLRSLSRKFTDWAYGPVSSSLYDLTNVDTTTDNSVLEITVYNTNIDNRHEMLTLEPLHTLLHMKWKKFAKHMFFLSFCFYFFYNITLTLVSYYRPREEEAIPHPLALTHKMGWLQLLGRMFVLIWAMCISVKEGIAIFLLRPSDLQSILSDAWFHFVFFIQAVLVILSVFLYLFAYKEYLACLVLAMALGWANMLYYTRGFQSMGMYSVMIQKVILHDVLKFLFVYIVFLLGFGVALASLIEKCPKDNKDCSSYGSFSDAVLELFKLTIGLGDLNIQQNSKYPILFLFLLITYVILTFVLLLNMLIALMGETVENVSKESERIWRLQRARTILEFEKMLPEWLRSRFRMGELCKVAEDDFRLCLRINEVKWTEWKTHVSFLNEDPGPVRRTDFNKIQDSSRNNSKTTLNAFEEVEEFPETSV

[4] = system: Src protein activation in OVCAR-8 cells; test: Cancer cell immunocytochemistry assay, Phospho-Src (Y416), OVCAR-8; type: cell-based, human
Description: (§1) Human cancer cells (15,000 cells/well) in 96 well half area microplate (Cat #3882, Corning) were incubated overnight at 37° C., then compounds or DMSO control were added to the cell culture and incubated at 37° C. for 1-6 h. The cells were sequentially fixed with 4% formalin, permeabilized with 0.5% Triton X-100, blocked with 5% BSA in PBS, incubated with Human Phospho-Src (Y416) Antibody (Cat #MAB2685, R&D Systems) at rt for 2 h, incubated with the secondary antibody Goat Ant-Rabbit IgG H&L (Alexa Fluor 488) (Cat #ab150077, abeam) for 45 min, and incubated with DAPI (Cat #D9542, Sigma-Aldrich) for 5 min. Finally, the cells were washed and covered with PBS. The cell images were visualized on an inverted fluorescence microscope (Leica DMIL Fluorescent Inverted Microscope with Digital Camera, Leica Microsystems). Pictures were taken [FIGS. 14A-C. Green: Human Phospho-Src (Y416), the activated form of the Src protein; Blue: DAPI (stain nucleus of cell)]. The fluorescence intensity values from 5 random cells were averaged, subtracted by the background value (area between cells) and the blank value [the blank control without the Human Phospho-Src (Y416) Antibody], then plotted as percentage against the DMSO control to indicate the effects of compound treatment on the cellular Src kinase phosphorylation levels in the cancer cells (FIGS. 15A-D).

[5] = system: NCI-H460; test: Human cancer cell growth inhibition assay (ATP assay), NCI-H460; type: cell-based; conditions: for IC50: Homo sapiens, NCI-H460, 96 h, 4 days, Means±SEM from three independent experiments, read-out: NCl-H460, IC50
[6] = system: Src protein activation in MDA-MB-231 cells; test: Cancer cell immunocytochemistry assay, Phospho-Src (Y416), MDA-MB-231; type: cell-based, human
Description: as §1

[7] = biological target: T2, human TRPA1 (Homo sapiens, UniProt O75762); test: In vitro Ca2+ flux counter-screen in human TRPA1 overexpressing cells; type: cell-based; conditions: counter-screen; read-out: TRPA1 EC50
T2 construct: expressed in transfected cells; host or cells: overexpressing cells
T2 sequence (O75762 whole entry): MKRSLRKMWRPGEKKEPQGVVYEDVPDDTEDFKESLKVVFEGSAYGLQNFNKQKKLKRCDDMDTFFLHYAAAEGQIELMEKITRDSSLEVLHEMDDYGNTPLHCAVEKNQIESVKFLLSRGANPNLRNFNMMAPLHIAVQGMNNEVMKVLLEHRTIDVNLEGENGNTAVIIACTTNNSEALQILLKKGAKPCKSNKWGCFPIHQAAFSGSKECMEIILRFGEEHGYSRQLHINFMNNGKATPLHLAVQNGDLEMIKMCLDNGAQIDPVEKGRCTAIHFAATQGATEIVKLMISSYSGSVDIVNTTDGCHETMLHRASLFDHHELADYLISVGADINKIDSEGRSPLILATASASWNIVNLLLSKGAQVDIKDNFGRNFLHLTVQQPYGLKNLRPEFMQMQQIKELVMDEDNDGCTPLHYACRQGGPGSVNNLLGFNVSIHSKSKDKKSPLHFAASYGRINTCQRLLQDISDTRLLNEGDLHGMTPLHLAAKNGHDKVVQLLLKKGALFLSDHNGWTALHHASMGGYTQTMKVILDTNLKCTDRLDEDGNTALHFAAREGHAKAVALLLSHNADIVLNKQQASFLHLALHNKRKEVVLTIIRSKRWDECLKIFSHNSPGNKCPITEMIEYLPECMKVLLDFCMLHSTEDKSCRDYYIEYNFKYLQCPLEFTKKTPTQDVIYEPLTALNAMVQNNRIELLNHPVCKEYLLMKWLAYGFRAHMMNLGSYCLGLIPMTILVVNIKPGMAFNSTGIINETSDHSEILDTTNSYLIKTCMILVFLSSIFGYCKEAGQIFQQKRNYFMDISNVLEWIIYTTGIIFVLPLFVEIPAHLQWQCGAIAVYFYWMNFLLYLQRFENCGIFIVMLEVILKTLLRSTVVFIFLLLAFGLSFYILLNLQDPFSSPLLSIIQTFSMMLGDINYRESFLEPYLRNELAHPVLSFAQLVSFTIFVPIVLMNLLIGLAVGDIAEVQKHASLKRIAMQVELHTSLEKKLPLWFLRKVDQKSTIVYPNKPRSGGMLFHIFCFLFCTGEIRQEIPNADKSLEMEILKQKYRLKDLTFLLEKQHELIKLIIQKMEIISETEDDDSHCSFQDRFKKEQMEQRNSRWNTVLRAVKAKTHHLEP

[8] = system: OVCAR-8 cell invasion; test: Cancer cell invasion assay, OVCAR-8; type: cell-based, human
Description: (§2) A cancer cell invasion assay was developed based on literature protocols (Methods 2005, 37, 208; EMBO J 2002, 21, 6289; Cellular Signalling 2012, 24, 1276.). Membrane matrix gel (Cat #A1413201, ThermoFisher) was diluted in ice-cold, serum-free RPMI 1640 Medium (Cat #31800022, ThermoFisher) at a concentration of 0.5-0.6 mg/mL. Then it was added to the upper compartment (100 μL per cup) of millicell inserts (Cat #PI8P01250, ThermoFisher) placed in a 24-well plate (Part no. 229123, Celltreat). The plate was incubated at 37° C. for 2 h to allow the liquid gel to solidify. RPMI 1640 Medium supplemented with 10% FBS (300 μL) was added to the well of the plate (lower compartment) as attractant, then DMSO or compounds were added. Human cancer cells (1×10^5 cells in 200 μL of RPMI 1640 Medium) were added to the upper compartment of the insert, then DMSO or compounds were added. After the plate was incubated at 37° C. for 24 h, the cells were fixed on the lower side of the insert membrane with 4% formaldehyde and stained with 1% crystal violet (Part no. IS12146, Innovating Science). The invaded cells on the lower side of the filter were counted under an inverted microscope equipped with either a 4× or a 10× objective (FIG. 11). The cell numbers from 5 random views were averaged and plotted as percentage against the DMSO control (FIG. 12A).

[9] = system: OVCAR-8; test: Human cancer cell growth inhibition assay (ATP assay), OVCAR-8; type: cell-based; conditions: for IC50: Homo sapiens, OVCAR-8, 96 h, 4 days, Means±SEM from three independent experiments, read-out: OVCAR-8, IC50
[10] = system: NCI-H460 cell invasion; test: Cancer cell invasion assay, NCI-H460; type: cell-based, human
Description: as §2

[11] = system: OVCAR-8 ovarian tumor; test: OVCAR-8 intraperitoneal xenograft in athymic nude mice; type: in vivo
Description: OVCAR-8 cells expressing red fluorescent protein were xenografted intraperitoneally in athymic nude mice to form tumors (Mol Cancer Ther 2020, 19, 89). After 4 weeks, mice were dosed with YB-1 or vehicle control (10% N-Methylpyrrolidone-72% PEG400—18% water) for 2 weeks (dosage: 5 mg/kg; ip treatment twice per week). As shown in FIGS. 16A-B, compared to vehicle group, animals treated with YB-1 for 2 weeks had 40% less tumor burden based on average radiant efficiency measured with IVIS and reduced approximately half of the body weight loss (7% average body weight loss for YB-1 treatment group vs. 13% average body weight loss for vehicle group).

[12] = system: Src protein activation in NCI-H460 cells; test: Cancer cell immunocytochemistry assay, Phospho-Src (Y416), NCI-H460; type: cell-based, human
Description: as §1

[13] = system: MDA-MB-231 cell invasion; test: Cancer cell invasion assay, MDA-MB-231; type: cell-based, human; conditions: for inhibition of MDA-MB-231 cell invasion: 24 h
Description: as §2

[14] = system: MDA-MB-231; test: Human cancer cell growth inhibition assay (ATP assay), MDA-MB-231; type: cell-based; conditions: for IC50: Homo sapiens, MDA-MB-231, 96 h, 4 days, Means±SEM from three independent experiments, read-out: MDA-MB-231, IC50
[15] = both, mouse, in vivo, 1 min
[16] = biological target: T3, TRPV1 (Mus musculus, UniProt Q704Y3); test: Ca2+ imaging of primary mouse dorsal root ganglion (DRG) neurons, TRPV1 desensitization; type: cell-based; conditions: then capsaicin 0.5 μM
T3 construct: DRG was isolated from male and female mice expressing GCaMP6f in neurons; endogenous in cells; host or cells: dissociated primary DRG neurons from GCaMP6f-expressing mice
T3 sequence (Q704Y3 whole entry): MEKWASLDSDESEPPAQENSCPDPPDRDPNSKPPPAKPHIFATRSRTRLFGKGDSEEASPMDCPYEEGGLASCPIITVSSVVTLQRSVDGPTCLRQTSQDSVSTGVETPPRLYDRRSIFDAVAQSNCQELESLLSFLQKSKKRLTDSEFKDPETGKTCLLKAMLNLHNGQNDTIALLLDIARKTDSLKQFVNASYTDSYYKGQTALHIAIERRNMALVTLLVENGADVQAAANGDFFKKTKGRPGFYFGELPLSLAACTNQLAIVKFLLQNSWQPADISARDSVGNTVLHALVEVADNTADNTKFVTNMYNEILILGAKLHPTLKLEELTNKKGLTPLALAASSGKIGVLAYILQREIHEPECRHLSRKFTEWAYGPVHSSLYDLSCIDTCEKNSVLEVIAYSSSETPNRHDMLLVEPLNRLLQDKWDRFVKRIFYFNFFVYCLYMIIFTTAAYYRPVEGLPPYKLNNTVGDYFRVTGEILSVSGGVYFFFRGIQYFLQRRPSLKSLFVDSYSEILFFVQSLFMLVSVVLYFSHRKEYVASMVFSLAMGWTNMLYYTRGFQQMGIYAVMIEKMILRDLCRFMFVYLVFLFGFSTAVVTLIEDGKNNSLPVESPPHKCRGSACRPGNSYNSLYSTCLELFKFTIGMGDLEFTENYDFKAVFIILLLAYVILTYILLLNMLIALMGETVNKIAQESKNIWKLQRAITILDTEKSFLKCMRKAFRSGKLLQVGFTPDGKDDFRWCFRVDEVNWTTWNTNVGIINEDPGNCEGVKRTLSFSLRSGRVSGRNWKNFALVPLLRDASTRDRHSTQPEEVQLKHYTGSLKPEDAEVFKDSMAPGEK

[17] = intraplantar
[18] = biological target: T4, human TRPV1 (Homo sapiens, UniProt Q8NER1); test: In vitro Ca2+ flux assay in human TRPV1 transfected HEK 293 cells; type: cell-based; conditions: Means±SEM from three independent experiments; read-out: TRPV1 EC50
T4 construct: DYK (FLAG) tag from vector pcDNA3.1+/C-(K)DYK (C); host or cells: FreeStyle 293-F cells (HEK 293), transient transfection
T4 sequence (Q8NER1 whole entry): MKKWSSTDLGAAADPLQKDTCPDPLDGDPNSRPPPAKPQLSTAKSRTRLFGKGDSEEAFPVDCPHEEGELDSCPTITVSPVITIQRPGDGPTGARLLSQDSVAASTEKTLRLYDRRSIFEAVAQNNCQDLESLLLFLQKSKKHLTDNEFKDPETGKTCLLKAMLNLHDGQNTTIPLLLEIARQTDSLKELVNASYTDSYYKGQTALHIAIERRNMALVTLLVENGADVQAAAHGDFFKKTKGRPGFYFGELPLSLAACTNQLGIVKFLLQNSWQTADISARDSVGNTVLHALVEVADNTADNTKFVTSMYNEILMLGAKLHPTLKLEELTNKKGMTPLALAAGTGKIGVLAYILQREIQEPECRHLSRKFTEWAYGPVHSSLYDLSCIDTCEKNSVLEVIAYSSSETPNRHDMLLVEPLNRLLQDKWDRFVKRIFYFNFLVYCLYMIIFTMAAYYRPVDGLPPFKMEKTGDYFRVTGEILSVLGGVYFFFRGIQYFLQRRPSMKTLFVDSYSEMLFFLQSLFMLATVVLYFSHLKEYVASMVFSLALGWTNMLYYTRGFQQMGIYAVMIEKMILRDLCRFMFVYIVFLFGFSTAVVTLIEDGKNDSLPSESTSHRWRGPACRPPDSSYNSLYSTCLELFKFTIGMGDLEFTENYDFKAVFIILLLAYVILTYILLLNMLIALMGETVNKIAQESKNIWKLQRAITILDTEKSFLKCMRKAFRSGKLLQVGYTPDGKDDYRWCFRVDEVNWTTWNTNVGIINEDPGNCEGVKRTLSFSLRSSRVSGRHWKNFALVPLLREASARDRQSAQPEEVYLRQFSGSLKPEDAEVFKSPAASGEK

[19] = YB-1 15 μM, capsaicin 50 μM, 1-6 h
[20] = 5 mg/kg ip twice per week for 2 weeks
[21] = first treatment capsaicin 0.5 μM, YB-11 0.5 μM or YB-16 1.0 μM, paired t-test

TRPV1 (Rattus norvegicus, UniProt O35433), sequence (O35433 whole entry): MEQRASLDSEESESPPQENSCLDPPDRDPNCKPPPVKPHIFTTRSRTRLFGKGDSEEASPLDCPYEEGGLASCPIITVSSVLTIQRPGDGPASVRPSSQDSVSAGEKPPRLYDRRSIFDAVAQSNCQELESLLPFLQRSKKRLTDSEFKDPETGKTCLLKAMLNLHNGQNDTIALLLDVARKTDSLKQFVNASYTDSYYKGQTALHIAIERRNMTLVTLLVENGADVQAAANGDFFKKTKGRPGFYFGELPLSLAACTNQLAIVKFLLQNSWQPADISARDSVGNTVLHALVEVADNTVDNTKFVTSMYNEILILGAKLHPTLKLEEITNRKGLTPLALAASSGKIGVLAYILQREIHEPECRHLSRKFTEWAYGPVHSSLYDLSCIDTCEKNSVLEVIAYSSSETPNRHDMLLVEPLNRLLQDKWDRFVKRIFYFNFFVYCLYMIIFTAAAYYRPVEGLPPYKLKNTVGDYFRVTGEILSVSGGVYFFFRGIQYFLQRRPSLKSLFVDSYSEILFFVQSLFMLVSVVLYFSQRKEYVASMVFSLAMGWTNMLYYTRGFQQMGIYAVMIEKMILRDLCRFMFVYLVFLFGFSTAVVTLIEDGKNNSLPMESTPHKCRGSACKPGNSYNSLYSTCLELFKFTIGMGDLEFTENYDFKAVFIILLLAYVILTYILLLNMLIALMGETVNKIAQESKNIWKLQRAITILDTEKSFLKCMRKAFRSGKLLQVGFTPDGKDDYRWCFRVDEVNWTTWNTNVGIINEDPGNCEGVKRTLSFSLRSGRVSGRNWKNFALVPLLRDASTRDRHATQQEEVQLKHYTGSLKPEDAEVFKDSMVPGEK

CCCCCCCCC(=O)NCc1ccc(N)c(OC)c1 [N-[(4-amino-3-methoxyphenyl)methyl]-Nonanamide]
EC50 ([1]; as reported in literature): > 10 µM

C=C(C)[C@]12C[C@@H](C)[C@@]34O[C@](Cc5ccccc5)(O[C@@H]1[C@@H]3C=C(COC(=O)Cc1ccc(O)c(OC)c1)C[C@]1(O)C(=O)C(C)=C[C@@H]41)O2 [Resiniferatoxin (RTX), Resiniferatoxin]
solubility in water [2]: insoluble in water

COc1cc(CNC(=O)CCCC/C=C/C(C)C)ccc1NC(=O)CCCC/C=C/C(C)C [YB-1]
EC50 [3]: > 10 µM | potency in inhibiting Src protein activation compared to capsaicin [4]: at least 3 fold | cellular Src kinase phosphorylation levels [4, 19]: time-dependently reduced the cellular Src kinase phosphorylation levels | IC50 [5]: 11 µM | potency in growth inhibition compared to capsaicin ([5]; NCI-H460 cell line): 18 fold | potency in inhibiting Src protein activation compared to capsaicin [6]: at least 3 fold | cellular Src kinase phosphorylation levels [6, 19]: time-dependently reduced the cellular Src kinase phosphorylation levels | EC50 [7]: > 10 µM | inhibition of OVCAR-8 cell invasion ([8]; 24 h): dose-dependently inhibited | potency in inhibiting cell invasion compared to capsaicin ([8]; OVCAR-8): ~3 fold | IC50 [9]: 38 µM | potency in growth inhibition compared to capsaicin ([9]; OVACR-8 cell line): 6 fold | inhibition of NCI-H460 cell invasion ([10]; 24 h): dose-dependently inhibited | potency in inhibiting cell invasion compared to capsaicin ([10]; NCI-H460): ~10 fold | average body weight loss [11, 20]: 7% | less tumor burden compared to vehicle group (average radiant efficiency, IVIS) [11, 20]: 40% | tumor burden in vivo ([11]; FIG. 16): reduces tumor burden in vivo | potency in inhibiting Src protein activation compared to capsaicin [12]: at least 3 fold | cellular Src kinase phosphorylation levels [12, 19]: time-dependently reduced the cellular Src kinase phosphorylation levels | inhibition of MDA-MB-231 cell invasion [13]: dose-dependently inhibited | potency in inhibiting cell invasion compared to capsaicin ([13]; MDA-MB-231): about 4 fold | IC50 [14]: 38 µM | potency in growth inhibition compared to capsaicin ([14]; MDA-MB-231 cell line): 10 fold

COc1cc(CC(=O)N/C=C/c2ccc(C(F)(F)F)cc2)ccc1O [YB-11]
EC50 [3]: > 10 µM | MPP [15]: 0.101 mg/mL | TRPV1-sensitive neurons showing desensitization ([16]; first treatment 0.5 μM): 67% | area under the curve of the Ca2+ signal of the second (capsaicin) application [16, 21]: statistically significant reduction; also recorded: significantly reduced | max Ca2+ signal of the second (capsaicin) application [16, 21]: statistically significant reduction; also recorded: significantly reduced | IC50 [5]: 87 ± 10 µM | EC50 [7]: > 10 µM | IC50 [9]: 65 µM | animal death and sedation in formalin test [17]: No mice treated with YB-16, YB-11 or YB-2 died or experienced sedative reaction | reduction of formalin first phase behavior ([17]; 10 g, 2 hr prior to formalin): 36% | inhibition of MDA-MB-231 cell invasion [13]: dose-dependently inhibited | IC50 [14]: 129 ± 21 µM | EC50 [18]: < 0.1 µM and 0.012 to 0.048 µM and 0.012 µM

COc1cc(CN(C)C(=O)CCCCC=CC(C)C)ccc1O [capsaicin analog 3d]
EC50 [1]: > 100 µM

Reference: patent publication US20240116856A1 (Young BioPharma, LLC, priority 2020, published 2024)
